The values below come from PubChem BioAssay AID1963872 (Molecular Pharmacology Branch, DTP, NCI, 2024).

Each structure is given as a SMILES string. “And” between values parts separate entries of the source, which are not always exact repeats. Equal values may be shown once. Where only a bound is given, the exact number is not on record here.

This test deals with KRAS patient-derived spheroids with HUVEC/MSC, viability. In words: Anticancer human tumor 519858-162-T-J1-PDC patient-derived colon adenocarcinoma cell line growth inhibition [KRAS2]. Conditions: for viability, T/C: stronger effect = lower value. The source says: Multicellular complex tumor spheroid response to RAS pathway inhibitors in combination with a targeted agents in patient-derived cell lines with oncogenic KRAS variants from multiple cancer types
A high-throughput screen of multi-cell type tumor spheroids was designed to identify active combinations of targeted small molecules and KRAS pathway inhibitors. Complex spheroids include a stromal component modeled by human endothelial cells (HUVEC) and fibroblasts modeled by human mesenchymal stem cells (MSCs). The concentration ranges selected for each drug and investigational agent were based upon clinically achievable concentrations if the clinical Cmax of the agent was known.
Compounds. The drugs and investigational agents: BI-3406 (NSC825286), BAY-293 (NSC824723), batoprotafib (TNO155; NSC825523), sotorasib (AMG 510; NSC818433), MRTX1257 (NSC819558), elimusertib (BAY 1895344; NSC800525), molibresib (GSK525762; NSC774829), temuterkib (LY3214996; NSC803410), venetoclax (NSC766270), alisertib (NSC759677), olaparib (NSC753686), talazoparib (NSC767125), erdafitinib (NSC781556), ipatasertib (NSC767898), cabozantinib (NSC761068), nintedanib (NSC756659), abemaciclib (NSC768073), docetaxel (NSC628503), trametinib (NSC758246), and sapanisertib (NSC764658) were obtained from the National Cancer Institute (NCI) Developmental Therapeutics Program Chemical Repository. The FDA-approved anticancer drug set is available from the Developmental Therapeutics Program. […] The stock solutions were prepared in dimethyl sulfoxide (DMSO, Sigma-Aldrich, St. Louis, MO, cat. D2650) at 800-fold the tested concentration and stored at -70 degrees C prior to their use. All drugs and investigational agents were tested over a range starting from a high concentration at or near the clinical Cmax and decreasing in half-log increments. If the clinical Cmax for an agent had not been determined, the highest concentration tested was 10 microM.
Cell Culture. All cells were maintained in an incubator at 37 degrees C and 5% CO2 with 95% humidity. The PDC lines were cultured according to standard operating procedures established by the NCI PDMR (https://pdmr.cancer.gov/sops/default.htm). Briefly, all PDCs were thawed and cultured in Matrigel-coated flasks prepared with a working solution of 1X Ham's F-12 nutrient mix, without supplementation (Invitrogen, Waltham, MA, cat. 11765054), 100 U/mL penicillin-streptomycin (Invitrogen, cat. 15140122), and 2.5% Matrigel (Corning Inc., Corning, NY, cat. 354248) for the first three passages. All PDCs were cultured in complete DMEM/F-12 media containing advanced DMEM/F-12 (Invitrogen, cat. 12634028), 4.9% defined fetal bovine serum, heat inactivated (HyClone Laboratories Inc., Logan, UT, cat. SH30070.03HI), 389 ng/mL hydrocortisone (Sigma-Aldrich, cat. H4001), 9.7 ng/mL human EGF recombinant protein (Invitrogen, cat. PHG0313), 23.4 microg/mL adenine (Sigma-Aldrich, cat. A2786), 97.3 U/mL penicillin-streptomycin (Invitrogen, cat. 15140122), 1.9 mM L-glutamine (Invitrogen, cat. 25030081), and 9.7 microM Y-27632 dihydrochloride (Tocris Bioscience, Bristol, United Kingdom, cat. 1254). The PDCs were cultured in complete DMEM/F12 media without 9.7 microM Y-27632 dihydrochloride for at least two passages prior to the screen. The established cell line HOP-62 was cultured in RPMI 1640 medium, HEPES (Invitrogen, cat. 22400105) with 10% defined fetal bovine serum (HyClone Laboratories Inc., cat. SH30070.03) and 2 mM L-glutamine (Invitrogen, cat. 25030081). The pooled donor HUVEC were cultured in endothelial cell growth medium 2 (PromoCell, Heidelberg, Germany, cat. C-22011) and the hMSC were cultured in mesenchymal stem cell growth medium 2 (PromoCell, cat. C-28009). For all experiments, HUVEC and hMSC were used at passages </=5, while the malignant cell lines were used at passages </=15. […]

Where [1] appears, read: curve of first compound, second compound 0.1 µM.
Where [2] appears, read: curve of first compound, second compound 0.316 µM.
[3] abbreviates: curve of first compound, second compound 1 µM.
The mark [4] stands for this setting: curve of first compound, second compound 3.16 µM.
Setting [5] is: second compound 0.1 µM, first compound 0.0316 µM.
Where [6] appears, read: second compound 0.1 µM, first compound 0.1 µM.
[7] abbreviates: second compound 0.316 µM, first compound 0.0316 µM.
Where [8] appears, read: second compound 0.316 µM, first compound 0.1 µM.
Setting [9] is: second compound 1 µM, first compound 0.0316 µM.
The mark [10] stands for this setting: second compound 1 µM, first compound 0.1 µM.
The mark [11] stands for this setting: second compound 3.16 µM, first compound 0.0316 µM.
Where [12] appears, read: second compound 3.16 µM, first compound 0.1 µM.
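Further: compound exposure lasted seven days before readout.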

In general, IC50 refers to the point on the concentration scale where inhibition reaches its midpoint. In general, viability, T/C refers to the ratio of treated to control. As to `CC1(C)CCC(CN2CCN(c3ccc(C(=O)NS(=O)(=O)c4ccc(NCC5CCOCC5)c([N+](=O)[O-])c4)c(Oc4cnc5[nH]ccc5c4)c3)CC2)=C(c2ccc(Cl)cc2)C1` + C=CC(=O)N1CCN(c2nc(OCC3CCCN3C)nc3c2CCN(c2cccc4cccc(C)c24)C3)CC1CC#N, the IC50 was 8.77 µM (curve of first compound, second compound 0.0316 µM); over 10 µM under setting [1]; over 10 µM under setting [2]; 3.45 µM under setting [3]; 1.3 µM under setting [4]. In addition, the viability, T/C runs as follows: (second compound 0.0316 µM, first compound 0.0316 µM) 86.4%; (second compound 0.0316 µM, first compound 0.1 µM) 92.8%; (second compound 0.0316 µM, first compound 0.316 µM) 76.3%; (second compound 0.0316 µM, first compound 1 µM) 88.1%; (second compound 0.0316 µM, first compound 3.16 µM) 87.9%; (second compound 0.0316 µM, first compound 10 µM) 45.3%. Moreover, the viability, T/C was 94.8% under setting [5]; 88.8% under setting [6]; 97% (second compound 0.1 µM, first compound 0.316 µM); 97.3% (second compound 0.1 µM, first compound 1 µM); 93.9% (second compound 0.1 µM, first compound 3.16 µM); 72.5% (second compound 0.1 µM, first compound 10 µM). The viability, T/C by setting is: under setting [7], 102%; under setting [8], 87%; (second compound 0.316 µM, first compound 0.316 µM) 69.6%; (second compound 0.316 µM, first compound 1 µM) 106%; (second compound 0.316 µM, first compound 3.16 µM) 68.7%; (second compound 0.316 µM, first compound 10 µM) 57.9%. The viability, T/C is, setting by setting: under setting [9], 76.8%; under setting [10], 75.6%; (second compound 1 µM, first compound 0.316 µM) 87.2%; (second compound 1 µM, first compound 1 µM) 69%; (second compound 1 µM, first compound 3.16 µM) 53.4%; (second compound 1 µM, first compound 10 µM) 17.6%. In addition, the viability, T/C was 83% under setting [11]; 67% under setting [12]; 70.6% (second compound 3.16 µM, first compound 0.316 µM); 64.7% (second compound 3.16 µM, first compound 1 µM); 0.7% (second compound 3.16 µM, first compound 3.16 µM); 0.42% (second compound 3.16 µM, first compound 10 µM).
Turning to `COc1cc2nc(C)nc(NC(C)c3cc(N)cc(C(F)(F)F)c3)c2cc1OC1CCOC1` (configuration not stated), the IC50 by setting is: (compound alone, run of 07/19/2021) > 10 µM and 8.93 µM; (compound alone, run of 07/26/2021) 9.77 µM and > 10 µM and 3.56 µM.
In the case of `CN(C)C/C=C/C(=O)Nc1cc2c(Nc3ccc(F)c(Cl)c3)ncnc2cc1O[C@H]1CCOC1` + C=CC(=O)N1CCN(c2nc(=O)n(-c3c(C)ccnc3C(C)C)c3nc(-c4c(O)cccc4F)c(F)cc23)C(C)C1, the IC50 under setting [1] was over 0.1 µM; the IC50 under setting [2] was over 0.1 µM; the IC50 under setting [3] is over 0.1 µM; the IC50 under setting [4] was over 0.1 µM; the IC50 (curve of first compound, second compound 10 µM) is over 0.1 µM. Besides, the viability, T/C runs as follows: (second compound 0.1 µM, first compound 0.000316 µM) 86.2%; (second compound 0.1 µM, first compound 0.001 µM) 95%; (second compound 0.1 µM, first compound 0.00316 µM) 86.8%; (second compound 0.1 µM, first compound 0.01 µM) 80%; under setting [5], 87.4%; under setting [6], 84.8%. Moreover, the viability, T/C reads like this: (second compound 0.316 µM, first compound 0.000316 µM) 85.6%; (second compound 0.316 µM, first compound 0.001 µM) 103%; (second compound 0.316 µM, first compound 0.00316 µM) 75.2%; (second compound 0.316 µM, first compound 0.01 µM) 86%; under setting [7], 93.9%; under setting [8], 60.2%. Also, the viability, T/C (second compound 1 µM, first compound 0.000316 µM) is 110%; the viability, T/C (second compound 1 µM, first compound 0.001 µM) was 77.8%; the viability, T/C (second compound 1 µM, first compound 0.00316 µM) was 71%; the viability, T/C (second compound 1 µM, first compound 0.01 µM) is 83.4%; the viability, T/C under setting [9] is 61.9%; the viability, T/C under setting [10] is 80.2%. Also, the viability, T/C (second compound 3.16 µM, first compound 0.000316 µM) was 61.4%; the viability, T/C (second compound 3.16 µM, first compound 0.001 µM) is 69.7%; the viability, T/C (second compound 3.16 µM, first compound 0.00316 µM) is 90.5%; the viability, T/C (second compound 3.16 µM, first compound 0.01 µM) was 61.1%; the viability, T/C under setting [11] was 61.5%; the viability, T/C under setting [12] was 81.7%. Moreover, the viability, T/C was 74.8% (second compound 10 µM, first compound 0.000316 µM); 92.6% (second compound 10 µM, first compound 0.001 µM); 79.1% (second compound 10 µM, first compound 0.00316 µM); 67.5% (second compound 10 µM, first compound 0.01 µM); 80.9% (second compound 10 µM, first compound 0.0316 µM); 73.6% (second compound 10 µM, first compound 0.1 µM).
